The source of these data is ChEMBL document CHEMBL5113463, “Discovery and preclinical evaluations of JBD0131, a novel nitrodihydro-imidazooxazole anti-tuberculosis agent” (Bioorg Med Chem Lett, 2022).

As a reminder, the IC50 is the concentration that gives 50% inhibition. Read a low IC50 as greater potency. A word on the half-life: it is the time in which the quantity being followed falls by half. What is called MIC50 is an inhibitory concentration at the 50% level, which refers to growth in some studies and to a panel of isolates in others. Broadly, the MIC90 is an inhibitory concentration at the 90% level, which refers to growth in some studies and to a panel of isolates in others.

In data set [1] the target is Voltage-gated inwardly rectifying potassium channel KCNH2 (Homo sapiens, UniProt Q12809). The experiment in a line: Inhibition of human ERG. Format: toxicity.
A short description of data set [2]: Metabolic stability in human assessed as half life. Format: ADME.
The test system of data set [3] is Mycobacterium tuberculosis. The experiment in a line: Antimycobacterial activity against clinical isolate drug susceptible Mycobacterium tuberculosis H37Rv assessed as bacterial growth inhibition. It counts as functional.
The subject of data set [4] is Mycobacterium tuberculosis. The data set is described as follows: In vivo antimycobacterial activity against Mycobacterium tuberculosis Erdman infected mouse acute tuberculosis infection model assessed as reduction lung bacterial load by measuring CFU at 15 mg/kg for 3 weeks at 5 days/week. Format: functional, organism-based.

In brackets after ≈: the same amount, converted by molar mass. Activity calls are given as the source filed them. The calls are words filed in the database; no cut-off is given here.

Chain of Voltage-gated inwardly rectifying potassium channel KCNH2 (Q12809 whole entry): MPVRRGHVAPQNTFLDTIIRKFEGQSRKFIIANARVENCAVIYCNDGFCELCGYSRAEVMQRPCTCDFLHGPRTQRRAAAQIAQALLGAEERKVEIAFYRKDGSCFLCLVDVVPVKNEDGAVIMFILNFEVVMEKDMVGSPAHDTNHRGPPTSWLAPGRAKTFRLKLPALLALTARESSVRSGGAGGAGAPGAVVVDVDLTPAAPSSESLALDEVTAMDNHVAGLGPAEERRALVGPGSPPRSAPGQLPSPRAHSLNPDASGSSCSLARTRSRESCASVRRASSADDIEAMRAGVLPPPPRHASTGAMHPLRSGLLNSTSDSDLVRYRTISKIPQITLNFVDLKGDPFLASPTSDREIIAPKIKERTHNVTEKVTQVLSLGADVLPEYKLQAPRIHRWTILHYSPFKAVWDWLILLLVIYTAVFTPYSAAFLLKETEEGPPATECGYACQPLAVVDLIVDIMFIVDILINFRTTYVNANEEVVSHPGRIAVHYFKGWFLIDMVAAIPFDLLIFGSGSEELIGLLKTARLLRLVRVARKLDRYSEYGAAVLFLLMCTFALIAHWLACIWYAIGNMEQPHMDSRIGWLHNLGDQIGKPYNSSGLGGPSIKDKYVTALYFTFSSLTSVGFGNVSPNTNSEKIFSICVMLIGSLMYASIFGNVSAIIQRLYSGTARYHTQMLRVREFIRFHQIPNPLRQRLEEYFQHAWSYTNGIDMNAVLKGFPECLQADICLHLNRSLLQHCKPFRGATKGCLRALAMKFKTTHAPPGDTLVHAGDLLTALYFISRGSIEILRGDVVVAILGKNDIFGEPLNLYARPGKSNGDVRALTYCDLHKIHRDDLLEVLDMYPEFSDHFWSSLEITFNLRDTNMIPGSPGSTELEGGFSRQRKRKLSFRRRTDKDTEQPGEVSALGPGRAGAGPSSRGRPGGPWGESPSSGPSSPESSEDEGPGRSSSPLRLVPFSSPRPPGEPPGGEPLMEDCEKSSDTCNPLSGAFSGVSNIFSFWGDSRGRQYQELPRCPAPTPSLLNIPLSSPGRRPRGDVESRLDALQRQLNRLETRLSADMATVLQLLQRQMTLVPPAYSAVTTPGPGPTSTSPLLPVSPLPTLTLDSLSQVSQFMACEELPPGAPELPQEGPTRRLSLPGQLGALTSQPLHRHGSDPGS

In data set [1], `C[C@]1(COc2ccc(N3CCC(Oc4ccc(OC(F)(F)F)cc4)CC3)cc2)CN=C(N)O1` [DM-6705] had a 50% inhibitory concentration (IC50) of 82 nM. Moreover, the half-life in data set [2] was 122 h.
With `CO[C@H]1/C=C/O[C@@]2(C)Oc3c(C)c(O)c4c(O)c(c(/C=N/N5CCN(C)CC5)c(O)c4c3C2=O)NC(=O)/C(C)=C\C=C\[C@H](C)[C@H](O)[C@@H](C)[C@@H](O)[C@@H](C)[C@H](OC(C)=O)[C@@H]1C` [RIFAMPIN], in data set [3], the MIC50 is 0.035 µg/mL (≈ 0.0425 µM) and the MIC90 stood at 0.064 µg/mL (≈ 0.0778 µM). The result in data set [4] was Active.
